Experimental data reported in patent publication US4246263A, “Antiinflammatory and immunoregulatory pyrimidines, their method of use and pharmaceutical compositions” (priority 1979, dated 1981).
Like-named read-outs stand apart in the source and are kept apart here.

Tests used:
[1] = test system: azathioprine-sensitive, rosette-forming cells; experiment: mouse E-rosette procedure (restoration of azathioprine-sensitive rosette-forming cells in adult thymectomized mice); format: in vivo, mouse (CD-1
Protocol: (§1) Antiinflammatory activity is reflected in the so-called rat foot edema test, in which the ability of an oral dose of the compound to inhibit an inflammatory reaction is measured, while immunoregulatory activity is assessed by the so-called mouse E-rosette procedure in which the ability of the test compound to restore erythrocyte rosette formation in thymectomized mice is measured. These tests are described in greater detail below.
As mentioned above, the immunoregulatory activity of the compounds of this invention is assessed by the mouse E-rosette procedure. In the mouse, the presence of a thymus is required for full expression of normal rosette formation with sheep erythrocytes [see for example, Bach and Dardenne, Immunol. 25, 353 (1973)]. The procedure examines the ability of a drug to restore azathioprine-sensitive, rosette-forming cells in adult thymectomized mice to the levels of normal animals. Specifically, rosette formation is examined in CD-1 mice thymectomized at 4 weeks of age and left at least 14 days post-surgery before manipulation (ATX mice). The ATX mice are dosed orally either with saline vehicle or drug. Sixteen hours later, single cell suspensions are prepared in Hanks balanced salt solution (HBSS) from the pooled spleens of three mice. To each tube is added 0.1 ml of lymphocytes (6×10^7 /ml) in HBSS and either 0.1 ml of HBSS or 0.1 ml of 40 μg/ml azathioprine in HBSS. After 90 minutes incubation at 37° C., the cells are washed 2× with 5 ml. of HBSS, made back up to 0.2 ml, and 0.2 ml of sheep red blood cells (erythrocytes) at 1.2×10^8 cells/ml. added. Then […] on hemagglutination slides and the number of rosettes counted. The ability of the test compound to restore the number of azathioprine sensitive rosetting cells to normal or higher is determined. In normal mice 42%±12% azathioprine sensitivity is found. In adult thymectomized mice 3±3% azathioprine sensitivity is found.

[2] = test system: carrageenin-induced rat foot edema; experiment: carrageenin-induced rat foot edema test; format: in vivo, rat (male albino)
Protocol: as §1
As mentioned above, the antiinflammatory activity of the compounds of the present invention is determined in the standard carrageenin-induced rat foot edema test [described by C. A. Winter et al., Proc. Soc. Exp. Biol. 111, p. 544 (1962)]. In this test, antiinflammatory activity is determined as the inhibition of edema formation in the hind paw of male albino rats (weight 150-190 g.) in response to a subplantar injection of carrageenin. The carrageenin is injected as a 1 percent aqueous suspension (0.05 ml.) 1 hour after oral administration of the drug. Edema formation is then assessed 3 hours after the carrageenin injection by measuring the volume of the injected paw initially as well as at the 3 hour mark. The increase in volume three hours after carrageenin injection constitutes the individual response. Compounds are considered active if the response between the drug-treated animals (six rats/group) and the control group (i.e., animals receiving the vehicle alone) is deemed to be significant on comparison with results afforded by standard compounds like acetylsalicylic acid at 100 mg./kg […] phenylbutazone at 33 mg./kg., both by the oral route of administration. The activity of the compound under test is expressed as the % inhibition of edema at a given oral dose. The ability of compounds to inhibit edema at various oral dosages (mg./kg., i.e. mg. of drug/kg. of rat body weight) is shown in Table II.

rats = conditions: oral
[3] = test system: humoral immune response to sheep red blood cells; experiment: humoral immune response of mice to sheep red blood cells; format: in vivo; conditions: for effect on humoral immune response to sheep red blood cells (immunosuppressive drugs): same conditions, dose of the drugs not given
[4] = test system: ultraviolet light induced erythema; experiment: ultraviolet light induced erythema procedure; format: in vivo; conditions: for suppression of erythema (NSAI drugs): ultraviolet light induced erythema, dose not given
[5] = test system: polyarthritis produced by injection of complete Freund's adjuvant; experiment: polyarthritis produced by injection of complete Freund's adjuvant in Wistar-Lewis rats; format: in vivo, rat (Wistar-Lewis); conditions: for effect on weight loss induced by adjuvant disease: rat, in vivo; for suppression of primary and secondary responses: reference NSAI drugs, dose not given
Excerpt: This pattern of antiarthritic activity again distinguishes 4-(2-hydroxyethylthiomethyl)pyridine /from the classical NSAI drugs.

rat = experiment: acute toxicity in the rat; format: in vivo; conditions: rats
Protocol: (§2) Its oral LD50 in mice is greater than 100 mg./kg. In the rat, it also has an LD50 value greater than 1000 mg./kg. […] No changes in clinical chemistry, hematology or body weight were observed.

[6] = acute toxicity in the rat; format: in vivo; conditions: rat, in vivo, po
Protocol: as §2

mice = experiment: acute oral toxicity in mice; format: in vivo
Protocol: as §2

[7] = test system: prostaglandin synthesis in MC5-5 cells; experiment: prostaglandin synthesis in MC5-5 cells in vitro; format: cell-based; conditions: read-out: IC50, inhibition of prostaglandin synthesis in MC5-5 cells
water solubility = format: physicochemical; conditions: dihydrogen phosphate salt
[8] = oral dosage of 33 mg./kg., 3 hours after carrageenin
[9] = oral dosage of 1 mg./kg., thymectomized mice

**Q.** For `OCCSCc1ccncn1` [4-(2-hydroxyethylthiomethyl)pyrimidine, 4-(2-Hydroxyethylthiomethyl)pyrimidine], which “restoration of rosette formation” value ([1]; oral dosage of 1 mg./kg., pyrimidine) is on record?
**A.** The value was 38%.

**Q.** What about the “% Inhibition of Edema” value [2, 8] of the same molecule?
**A.** Its value is 11%.

**Q.** Which “% Inhibition of Edema” value [2, 8] does the source give for `CC(CO)SCc1ccncc1` (stereo not shown) [drawing 30] here?
**A.** The value was 20%.

**Q.** For `OCC(O)CSCc1ccncc1` (stereo not shown) [drawing 17], which “% Rosetting Cells” value [1, 9] is on record?
**A.** The value was 57%.

**Q.** Which “% Rosetting Cells” value [1, 9] does the source give for `OCC(SCc1ccncc1)c1ccccc1` (stereo not shown) here?
**A.** The value was 33%.

**Q.** Which ulcerogenic effects (rats; 50 mg./kg.) does the source give for `CC(=O)Oc1ccccc1C(=O)O` [aspirin, acetylsalicylic acid] here?
**A.** Its ulcerogenic effects is “distinct ulcerogenic effects”.

**Q.** For `CC(O)C(C)SCc1ccncc1` (stereo not shown), which “% Rosetting Cells” value [1, 9] is on record?
**A.** Its value is 63%.

**Q.** With `CN(Cc1cnc2nc(N)nc(N)c2n1)c1ccc(C(=O)N[C@@H](CCC(=O)O)C(=O)O)cc1` [methotrexate] as the molecule, how does the “effect on humoral immune response to sheep red blood cells (immunosuppressive drugs)” value (“effect … (immunosuppressive drugs)” for short) [3] read?
**A.** Its value is “profoundly inhibitory”.

**Q.** For `O=P1(N(CCCl)CCCl)NCCCO1` (stereo not shown) [cyclophosphamide], which “effect … (immunosuppressive drugs)” value [3] is on record?
**A.** The value was “profoundly inhibitory”.

**Q.** For `CC(SCc1ccncc1)C(O)c1ccccc1` (stereo not shown), which “% Rosetting Cells” value [1, 9] is on record?
**A.** The value was 33%.

**Q.** Which “% Rosetting Cells” value [1, 9] does the source give for `CC(CO)SCc1ccncc1` (stereo not shown) [drawing 19] here?
**A.** The value was 40%.

**Q.** With `COc1ccc2c(c1)c(CC(=O)O)c(C)n2C(=O)c1ccc(Cl)cc1` [indomethacin] as the molecule, how does the “suppression of erythema (NSAI drugs)” value [4] read?
**A.** Its value is “clearcut suppression of erythema”.

**Q.** And the ulcerogenic effects (rats; 10 mg./kg.)?
**A.** The ulcerogenic effects was “distinct ulcerogenic effects”.

**Q.** For `CN1C(C(=O)Nc2ccccn2)=C(O)c2ccccc2S1(=O)=O` [Piroxicam, reference compound], which “effect on weight loss induced by adjuvant disease” value (“effect on weight loss induced” below) [5] is on record?
**A.** The value was “partially preventing the weight loss”.

**Q.** What about the “suppression of primary and secondary responses” value [5] of the same molecule?
**A.** Its value is “effective in suppressing both the primary and secondary responses”.

**Q.** Which “% Rosetting Cells” value [1, 9] does the source give for `COCCSCc1ccncc1` [CH2 CH2, CH3, 1, 4-(2-Methoxyethylthiomethyl)pyridine] here?
**A.** The value was 33%.

**Q.** With `OCCSCc1ccncc1` [4-(2-Hydroxyethylthiomethyl)pyridine] as the molecule, how does the “acute toxicity relative to levamisole” value (rat) read?
**A.** The value was “less acutely toxic than levamisole”.

**Q.** What about the LD50 [6] of the same molecule?
**A.** Its LD50 is over 1000 mg/kg.

**Q.** What about the “activity in ultraviolet light induced erythema procedure” value ([4]; 33 mg./kg. p.o.) of the same molecule?
**A.** Its value is “lack of activity”.

**Q.** What about the ED50 ([5]; Rattus norvegicus, po) of the same molecule?
**A.** The ED50 was about 33 mg/kg.

**Q.** What about the “effect on the rapid onset, acute inflammation of the adjuvant-injected foot” value ([5]; day 4 or day 16) of the same molecule?
**A.** The value was “no effects”.

**Q.** And the “antiarthritic effect on the secondary response (spread of disease to the uninjected foot)” value ([5]; p.o.)?
**A.** The value was “selective for the slow onset, lymphoid cell mediated, secondary response”.

**Q.** And the “protection from adjuvant polyarthritis” value ([5]; p.o.)?
**A.** The value was “dose-related protection”.

**Q.** And the “effect on weight loss induced” value [5]?
**A.** The value was “does not affect the weight loss”.

**Q.** And the “% Rosetting Cells” value ([1]; oral, 0.01 mg./kg.)?
**A.** Its value is 16%.

**Q.** What about the “% Inhibition of Edema” value [2, 8] of the same molecule?
**A.** Its value is 52%.

**Q.** And the “% Inhibition of Edema” value ([2]; oral, 3.3 mg./kg.)?
**A.** Its value is 16%.

**Q.** What about the “% Inhibition of Edema” value ([2]; oral, 10 mg./kg.) of the same molecule?
**A.** Its value is 29%.

**Q.** What about the “effect on humoral immune response to sheep red blood cells” value ([3]; four daily oral doses, 33 mg./kg.) of the same molecule?
**A.** The value was “did not affect the humoral immune response”.

**Q.** And the “acute toxicity relative to levamisole” value (mice; mice)?
**A.** The value was “less acutely toxic than levamisole”.

**Q.** And the LD50 (mice; mouse, in vivo, po)?
**A.** The LD50 was “greater than 100 mg./kg”.

**Q.** And the IC50 [7]?
**A.** The IC50 was over 100 µM.

**Q.** With `OC(CSCc1ccncc1)c1ccccc1` (stereo not shown) as the molecule, how does the “% Rosetting Cells” value ([1]; oral, 10 mg./kg.) read?
**A.** The value was 50%.

**Q.** Which “% Rosetting Cells” value [1, 9] does the source give for `OCCCSCc1ccncc1` [CH2 CH2 CH2, H, 1, 4-(3-Hydroxypropylthiomethyl)pyridine] here?
**A.** The value was 36%.

**Q.** With `Cn1cnc([N+](=O)[O-])c1Sc1ncnc2nc[nH]c12` [azathioprine] as the molecule, how does the “effect … (immunosuppressive drugs)” value [3] read?
**A.** The value was “profoundly inhibitory”.

**Q.** Which “% Rosetting Cells” value [1, 9] does the source give for `O=[N+]([O-])c1ccc(C(O)CSCc2ccncc2)cc1` (stereo not shown) here?
**A.** The value was 40%.

**Q.** For `CC(O)CSCc1ccncc1` (stereo not shown) [drawing 21], which “% Rosetting Cells” value [1, 9] is on record?
**A.** The value was 56%.

**Q.** For `O=P(O)(O)O.OCCSCc1ccncc1` [4-(2-hydroxyethylthiomethyl)pyridinium dihydrogen phosphate], which water solubility (water solubility) is on record?
**A.** Its water solubility is “excellent water solubility”.

**Q.** With `CC(=O)OCCSCc1ccncc1` [CH2 CH2, drawing 27, 1, 4-(2-Acetoxyethylthiomethyl)pyridine] as the molecule, how does the “% Rosetting Cells” value [1, 9] read?
**A.** The value was 40%.

**Q.** For `CC(O)CSCc1ccncc1` (stereo not shown) [drawing 31], which “% Inhibition of Edema” value [2, 8] is on record?
**A.** Its value is 5%.

**Q.** For `CC(C)(O)CSCc1ccncc1`, which “% Rosetting Cells” value [1, 9] is on record?
**A.** The value was 39%.

**Q.** Which “% Rosetting Cells” value [1, 9] does the source give for `COc1ccc(C(O)CSCc2ccncc2)cc1` (stereo not shown) here?
**A.** Its value is 43%.

**Q.** Which “% Rosetting Cells” value [1, 9] does the source give for `Oc1ccccc1SCc1ccncc1` here?
**A.** Its value is 59%.

**Q.** Which “% Rosetting Cells” value [1, 9] does the source give for `OCCSCCc1ccncc1` [CH2 CH2, H, 2, 4-[2-(2-Hydroxyethylthio)ethyl]pyridine] here?
**A.** Its value is 50%.

**Q.** With `CCCCC1C(=O)N(c2ccccc2)N(c2ccccc2)C1=O` [phenylbutazone, reference compound] as the molecule, how does the “suppression of erythema (NSAI drugs)” value [4] read?
**A.** The value was “clearcut suppression of erythema”.

**Q.** What about the “effect on weight loss induced” value [5] of the same molecule?
**A.** The value was “partially preventing the weight loss”.

**Q.** And the “suppression of primary and secondary responses” value [5]?
**A.** The value was “effective in suppressing both the primary and secondary responses”.

**Q.** Which “effect … (immunosuppressive drugs)” value [3] does the source give for `Sc1ncnc2nc[nH]c12` [6-mercaptopurine] here?
**A.** The value was “profoundly inhibitory”.

**Q.** For `OCC(O)CSCc1ccncc1` (stereo not shown) [drawing 29], which “% Inhibition of Edema” value [2, 8] is on record?
**A.** The value was 17%.
